Data taken from patent publication US11976054B2, “Amide derivative and preparation method therefore and use thereof in medicine” (Chengdu Baiyu Pharmaceutical Co., Ltd., priority 2019, dated 2024).

System: Human monocyte cell line THP-1
Assay: Detection of THP-1 cell pyroptosis (Caspase-Glo 1 Inflammasome Assay)
Type: cell-based
Settings: 20 nM PMA 48 h, 1 μg/mL LPS, compound 3 h
Method: Human monocyte cell line THP-1 (ATCC® TB-202TM) was cultured in RPMI-1640 culture medium containing […], 1 mM pyruvic acid, 0.05 mM β-mercaptoethanol and 10% double antibody under the culture conditions of 37° C. and […].
Cell counting was performed, THP-1 cells were seeded into a 96-well plate at 50000 per well, and 20 nM PMA was added for inducing at 37° C./5% CO2 for 48 h. The culture medium was then discarded, and 100 μL of serum-free RPMI-1640 medium containing 1 μg/mL LPS was added. 5 μL of compound or solvent control was added and 3-fold diluted in gradient from a maximum concentration of 10 μM, and 10 gradient concentrations were set. The mixtures were incubated at 37° C./5% CO2 for 3 h. After the incubation, the mixtures were centrifuged at 300 g for 5 min, and the culture medium was discarded. Pyroptosis assay was performed according to specific steps described in instructions of Caspase-Glo® 1 Inflammasome Assay kit. IC50 was calculated using GraphPad Prism7.0 software.

[1] = Homo sapiens, THP-1, THP-1 pyroptosis

CC(C)(O)c1ncc(S(=N)(=O)NC(=O)Nc2c(CC3CCC3)ccc3c2CCC3)s1 (single isomer, unassigned) [Compound 19-1, RS- and SS-N-((5-(cyclobutylmethyl)-2,3-dihydro-1H-inden-4-yl)carbamoyl)-2-(2-hydroxypropan-2-yl)thiazole-5-sulfonimidamide]
IC50 (THP-1 pyroptosis): 1000 to 5000 nM

RS- and SS-N-((5-(cyclobutylmethyl)-2,3-dihydro-1H-inden-4-yl)carbamoyl)-4-(2-hydroxypropan-2-yl-1,1,1,3,3,3-d6)furan-2-sulfonimidamide [Compound 50-1]
IC50 (THP-1 pyroptosis): 500 to 1000 nM

CC(c1ccc2c(c1NC(=O)NS(=N)(=O)c1cc(C(C)(C)O)co1)CCC2)C1CCC1 (stereo not drawn) [Compound 16, N-((5-(1-cyclobutylethyl)-2,3-dihydro-1H-inden-4-yl)carbamoyl)-4-(2-hydroxypropan-2-yl)furan-2-sulfonimidamide]
IC50 [1]: ≤ 100 nM

(RS, RC)- and (SS, RC)-N-((5-(1-cyclopropylethyl)-2,3-dihydro-1H-inden-4-yl-7-d)carbamoyl)-4-(2-hydroxypropan-2-yl)furan-2-sulfonimidamide [Compound 31-1]
IC50 (THP-1 pyroptosis): 100 to 500 nM

C[C@@H](c1ccc2c(c1NC(=O)NS(=N)(=O)c1cc(C(C)(C)O)co1)CC2)C1CC1 (mixture of isomers) [Compound 38-2, RS- and SS-N-((3-((R)-1-cyclopropylethyl)bicyclo[4.2.0]octa-1(6),2,4-trien-2-yl)carbamoyl)-4-(2-hydroxypropan-2-yl)furan-2-sulfonimidamide]
IC50 (THP-1 pyroptosis): 1000 to 5000 nM

CC(c1ccc2c(c1NC(=O)NS(=N)(=O)c1cnc(C(C)(C)O)s1)CCC2)C1CC1 (racemic) [Compound 20-2, (RS, SC)- and (SS, SC)-N-((5-(1-cyclopropylethyl)-2,3-dihydro-1H-inden-4-yl)carbamoyl)-2-(2-hydroxypropan-2-yl)thiazole-5-sulfonimidamide]
IC50 (THP-1 pyroptosis): 100 to 500 nM

(RS, SC)- and (SS, SC)-N-((5-(1-cyclopropylethyl)-2,3-dihydro-1H-inden-4-yl)carbamoyl)-4-(2-hydroxypropan-2-yl-1,1,1,3,3,3-d6)furan-2-sulfonimidamide [Compound 49-1]
IC50 (THP-1 pyroptosis): 100 to 500 nM

C[C@H](c1ccc2c(c1NC(=O)NS(=O)(=O)c1ccc(C(C)(C)O)s1)CCC2)C1CC1 [Compound 57, (S)-N-((5-(1-cyclopropylethyl)-2,3-dihydro-1H-inden-4-yl)carbamoyl)-5-(2-hydroxypropan-2-yl)thiophene-2-sulfonamide]
IC50 [1]: 1000 to 5000 nM

C[C@@H](c1ccc2c(c1NC(=O)NS(=O)(=O)c1ccc(C(C)(C)O)s1)CCC2)C1CC1 [Compound 58, (R)-N-((5-(1-cyclopropylethyl)-2,3-dihydro-1H-inden-4-yl)carbamoyl)-5-(2-hydroxypropan-2-yl)thiophene-2-sulfonamide]
IC50 [1]: 1000 to 5000 nM

CC(C)(O)c1coc(S(=O)(=O)NC(=O)Nc2c(CC3CCC3)ccc3c2CCC3)c1 [Compound 17, N-((5-(cyclobutylmethyl)-2,3-dihydro-1H-inden-4-yl)carbamoyl)-4-(2-hydroxypropan-2-yl)furan-2-sulfonamide]
IC50 [1]: 100 to 500 nM

C[C@@H](c1ccc2c(c1NC(=O)NS(=O)(=O)c1cc(C(C)(C)O)co1)CCC2)C1CC1 [Compound 5, (R)-N-((5-(1-cyclopropylethyl)-2,3-dihydro-1H-inden-4-yl)carbamoyl)-4-(2-hydroxypropan-2-yl)furan-2-sulfonamide]
IC50 [1]: ≤ 100 nM

CC(C)c1cccc(CC2CCC2)c1NC(=O)NS(=N)(=O)c1cc(C(C)(C)O)co1 (single isomer, unassigned) [Compound 70-2, RS- and SS-N-((2-(cyclobutylmethyl)-6-isopropylphenyl)carbamoyl)-4-(2-hydroxypropan-2-yl)furan-2-sulfonimidamide]
IC50 (THP-1 pyroptosis): 1000 to 5000 nM

CC(c1cc(C#N)c2c(c1NC(=O)NS(=N)(=O)c1cc(C(C)(C)O)co1)CCC2)C1CC1 (racemic) [Compound 46-2, (RS, RC)- and (SS, RC)-N-((7-cyano-5-(1-cyclopropylethyl)-2,3-dihydro-1H-inden-4-yl)carbamoyl)-4-(2-hydroxypropan-2-yl)furan-2-sulfonimidamide]
IC50 (THP-1 pyroptosis): 100 to 500 nM

CC(C)(O)c1coc(S(=O)(=O)NC(=O)Nc2c(C(C3CC3)C3CC3)ccc3c2CCC3)c1 [Compound 86, N-((5-(dicyclopropylmethyl)-2,3-dihydro-1H-inden-4-yl)carbamoyl)-4-(2-hydroxypropan-2-yl)furan-2-sulfonamide]
IC50 [1]: 500 to 1000 nM

CC(C)c1cccc(C(C)C2CC2)c1NC(=O)NS(=N)(=O)c1cc(C(C)(C)O)co1 (racemic) [Compound 74-2, (RS, RC)- and (SS, RC)-N-((2-(1-cyclopropylethyl)-6-isopropylphenyl)carbamoyl)-4-(2-hydroxypropan-2-yl)furan-2-sulfonimidamide]
IC50 (THP-1 pyroptosis): 1000 to 5000 nM

Cc1cc2c(c(NC(=O)NS(=O)(=O)c3cc(C(C)(C)O)co3)c1[C@H](C)C1CC1)CCC2 [Compound 90, (R)-N-((5-(1-cyclopropylethyl)-6-methyl-2,3-dihydro-1H-inden-4-yl)carbamoyl)-4-(2-hydroxypropan-2-yl)furan-2-sulfonamide]
IC50 [1]: 100 to 500 nM

C[C@@H](c1ccc2c(c1NC(=O)NS(=O)(=O)c1cc(C(C)(C)O)co1)CCC2)C1CCC1 [Compound 79, (R)-N-((5-(1-cyclobutylethyl)-2,3-dihydro-1H-inden-4-yl)carbamoyl)-4-(2-hydroxypropan-2-yl)furan-2-sulfonamide]
IC50 [1]: 100 to 500 nM

C[C@@H](c1ccc2c(c1NC(=O)NS(=O)(=O)c1cc(C(C)(C)O)co1)CC2)C1CC1 [Compound 37, (R)-N-((3-(1-cyclopropylethyl)bicyclo[4.2.0]octa-1(6),2,4-trien-2-yl)carbamoyl)-4-(2-hydroxypropan-2-yl)furan-2-sulfonamide]
IC50 [1]: 100 to 500 nM

C[C@H](c1ccc2c(c1NC(=O)NS(=O)(=O)c1cnc(C(C)(C)O)s1)CCC2)C1CC1 [Compound 88, (S)-N-((5-(1-cyclopropylethyl)-2,3-dihydro-1H-inden-4-yl)carbamoyl)-2-(2-hydroxypropan-2-yl)thiazole-5-sulfonamide]
IC50 [1]: 100 to 500 nM

C[C@H](c1ccc2c(c1NC(=O)N[S@](=N)(=O)c1cc(C(C)(C)O)cs1)CCC2)C1CC1 [Compound 54-2]
IC50 [1]: 100 to 500 nM

CC(c1ccc2c(c1NC(=O)NS(=N)(=O)c1cc(C(C)(C)O)co1)CCC2)C1CC1 (racemic) [Compound 52-1, (RS, SC)- and (SS, SC)-N-((5-(1-cyclopropylethyl)-2,3-dihydro-1H-inden-4-yl)carbamoyl)-4-(2-hydroxypropan-2-yl)furan-2-sulfonimidamide]
IC50 (THP-1 pyroptosis): 1000 to 5000 nM

O=C(Nc1c(CC2CCC2)ccc2c1CCC2)NS(=O)(=O)c1cc(C2(O)CC2)co1 [Compound 61, N-((5-(cyclobutylmethyl)-2,3-dihydro-1H-inden-4-yl)carbamoyl)-4-(1-hydroxycyclopropyl)furan-2-sulfonamide]
IC50 [1]: 1000 to 5000 nM

C[C@@H](c1ccc2c(c1NC(=O)NS(=O)(=O)c1cc(C(C)(C)O)co1)CCC2)C1CCCC1 [Compound 26, (R)-N-((5-(1-cyclopentylethyl)-2,3-dihydro-1H-inden-4-yl)carbamoyl)-4-(2-hydroxypropan-2-yl)furan-2-sulfonamide]
IC50 [1]: 1000 to 5000 nM

CC(c1ccc2c(c1NC(=O)NS(=N)(=O)c1ccc(C(C)(C)O)s1)CCC2)C1CC1 (racemic) [Compound 51-2, (RS, SC)- and (SS, SC)-N-((5-(1-cyclopropylethyl)-2,3-dihydro-1H-inden-4-yl)carbamoyl)-5-(2-hydroxypropan-2-yl)thiophene-2-sulfonimidamide]
IC50 (THP-1 pyroptosis): 5000 to 10000 nM

CC(c1cc(C#N)c2c(c1NC(=O)NS(=N)(=O)c1cc(C(C)(C)O)co1)CCC2)C1CC1 (racemic) [Compound 48-1, (RS, SC)- and (SS, SC)-N-((7-cyano-5-(1-cyclopropylethyl)-2,3-dihydro-1H-inden-4-yl)carbamoyl)-4-(2-hydroxypropan-2-yl)furan-2-sulfonimidamide]
IC50 (THP-1 pyroptosis): 100 to 500 nM

CC(c1ccc2c(c1NC(=O)NS(=O)(=O)c1cc(C(C)(C)O)co1)CCC2)C1CCC1 (stereo not drawn) [Compound 15, N-((5-(1-cyclobutylethyl)-2,3-dihydro-1H-inden-4-yl)carbamoyl)-4-(2-hydroxypropan-2-yl)furan-2-sulfonamide]
IC50 [1]: 100 to 500 nM

Cc1ccc(S(=N)(=O)NC(=O)Nc2c(C(C)C)cccc2C(C)C)cc1 (stereo not drawn) [Compound 92-2, RS- and SS-N-((2,6-diisopropylphenyl)carbamoyl)-4-methylbenzenesulfonimidamide, reference compound]
IC50 (THP-1 pyroptosis): > 10000 nM

C[C@H](c1ccc2c(c1NC(=O)NS(=O)(=O)c1cc(C(C)(C)O)co1)CCC2)C1CCC1 [Compound 81, (S)-N-((5-(1-cyclobutylethyl)-2,3-dihydro-1H-inden-4-yl)carbamoyl)-4-(2-hydroxypropan-2-yl)furan-2-sulfonamide]
IC50 [1]: 1000 to 5000 nM

[2H]c1cc([C@@H](C)C2CC2)c(NC(=O)NS(=O)(=O)c2cc(C(C)(C)O)co2)c2c1CCC2 [Compound 30, (S)-N-((5-(1-cyclopropylethyl)-2,3-dihydro-1H-inden-4-yl-7-d)carbamoyl)-4-(2-hydroxypropan-2-yl)furan-2-sulfonamide]
IC50 [1]: 1000 to 5000 nM

CC(C)c1cccc([C@@H](C)C2CC2)c1NC(=O)NS(=N)(=O)c1cc(C(C)(C)O)co1 (mixture of isomers) [Compound 73-2, (RS, SC) and (SS, SC)-N-((2-(1-cyclopropylethyl)-6-isopropylphenyl)carbamoyl)-4-(2-hydroxypropan-2-yl)furan-2-sulfonimidamide]
IC50 (THP-1 pyroptosis): 1000 to 5000 nM
